Measurements: PubChem BioAssay AID330 (DTP/NCI, 2004)
Several values for one entry are separate records, joined by “and”; a condition that tells them apart may be missing. Equal values may be shown once. Inconclusive results and toxic doses are left out. Rule for the calls: active = survival T/C of 150% or more; inactive = T/C below 125% in these data.

Tested on: P388 leukemia ip, CD2F1 mice, survival T/C
Test: NCI In Vivo Anticancer Drug Screen. Data for tumor model P388 Leukemia (intraperitoneal) in CD2F1 (CDF1) mice
Settings: endpoint: median survival time, higher = longer survival
Summary of the method: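 Mice carrying the transplanted tumor received test compound or vehicle. Survival was recorded in each group, and the value is the treated-group measurement divided by that of the vehicle-treated control group.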

[1] = dose: 50.0 mg/kg/injection, schedule: Q01DX009 (ip), vehicle: saline
[2] = dose: 100.0 mg/kg/injection, schedule: Q01DX009 (ip), vehicle: saline
[3] = dose: 60.0 mg/kg/injection, schedule: Q01DX005 (ip), vehicle: saline with Tween-80
[4] = dose: 120.0 mg/kg/injection, schedule: Q01DX005 (ip), vehicle: saline with Tween-80
[5] = dose: 240.0 mg/kg/injection, schedule: Q01DX005 (ip), vehicle: saline with Tween-80
[6] = dose: 25.0 mg/kg/injection, schedule: Q01DX005 (ip), vehicle: saline with Tween-80
[7] = dose: 50.0 mg/kg/injection, schedule: Q01DX005 (ip), vehicle: saline with Tween-80
[8] = dose: 100.0 mg/kg/injection, schedule: Q01DX005 (ip), vehicle: saline with Tween-80
[9] = dose: 50.0 mg/kg/injection, schedule: Q01DX009 (ip), vehicle: saline with Tween-80
[10] = dose: 100.0 mg/kg/injection, schedule: Q01DX009 (ip), vehicle: saline with Tween-80
[11] = dose: 200.0 mg/kg/injection, schedule: Q01DX009 (ip), vehicle: saline with Tween-80
[12] = dose: 400.0 mg/kg/injection, schedule: Q01DX009 (ip), vehicle: saline with Tween-80
[13] = dose: 50.0 mg/kg/injection, schedule: Q01DX009 (ip), vehicle: Klucel (hydroxypropylcellulose) (HPC)
[14] = dose: 50.0 mg/kg/injection, schedule: Q01DX005 (ip), vehicle: Klucel (hydroxypropylcellulose) (HPC)
[15] = dose: 100.0 mg/kg/injection, schedule: Q01DX005 (ip), vehicle: Klucel (hydroxypropylcellulose) (HPC)

Measured: T/C

CCC(c1ccc(O)cc1)C(CC)c1ccc(OC)cc1 (stereo unspecified)
inactive: dose: 100.0 mg/kg/injection, schedule: Q04DX003 (ip), vehicle: saline with Tween-80 104 % of control | dose: 200.0 mg/kg/injection, schedule: Q04DX003 (ip), vehicle: saline with Tween-80 86 % of control

CCCCCCCCCCCCC1=NCC[N+]1(CCO)CC(O)COc1cc(Cl)c(Cl)cc1Cl (stereo unspecified)
inactive: dose: 12.5 mg/kg/injection, schedule: Q01DX009 (ip), vehicle: saline 105 % of control | dose: 25.0 mg/kg/injection, schedule: Q01DX009 (ip), vehicle: saline 105 % of control | [1] 102 % of control and 95 % of control | [2] 90 % of control

O=C(O)CCc1c2ccc(=O)c(O)c-2oc2c(O)c(O)ccc12
inactive: [3] 104 % of control | [4] 98 % of control | [5] 103 % of control

CC1C2Cc3ccc(O)cc3C1(C)CCN2Cc1ccoc1 (stereo unspecified)
inactive: [1] 96 % of control | [2] 99 % of control

CN=C(NC)c1ccc(NC(=O)c2ccc(C(=O)Nc3ccc(C(=NC)NC)c(OC)c3)c(Cl)c2)cc1OC
inactive: dose: 0.78 mg/kg/injection, schedule: Q01DX005 (ip), vehicle: saline with Tween-80 101 % of control | dose: 1.56 mg/kg/injection, schedule: Q01DX005 (ip), vehicle: saline with Tween-80 104 % of control | dose: 3.13 mg/kg/injection, schedule: Q01DX005 (ip), vehicle: saline with Tween-80 105 % of control

O=C1OC(C2OC(=O)C(=O)C2C(=O)c2ccc([N+](=O)[O-])cc2)C(C(=O)c2ccc([N+](=O)[O-])cc2)C1=O (stereo unspecified)
inactive: [3] 98 % of control | [4] 94 % of control

CCN(CC)c1ccc(N=Nc2ccc(C)cc2)cc1
inactive: [2] 89 % of control | dose: 200.0 mg/kg/injection, schedule: Q01DX009 (ip), vehicle: saline 103 % of control | dose: 400.0 mg/kg/injection, schedule: Q01DX009 (ip), vehicle: saline 90 % of control

CCOC(=O)CCC1CCCC(CCC(=O)OCC)C1=O (stereo unspecified)
inactive: dose: 50.0 mg/kg/injection, schedule: Q01DX009 (ip), vehicle: other 105 % of control | dose: 100.0 mg/kg/injection, schedule: Q01DX009 (ip), vehicle: other 101 % of control | dose: 200.0 mg/kg/injection, schedule: Q01DX009 (ip), vehicle: other 106 % of control

O=[N+]([O-])c1ccc(Sc2c3ccccc3nc3ccccc23)nc1
inactive: [6] 108 % of control | [7] 100 % of control | [8] 106 % of control | dose: 200.0 mg/kg/injection, schedule: Q01DX005 (ip), vehicle: saline with Tween-80 100 % of control

COc1cc2cc3cc(-c4ccc(Cl)cc4)c(N4CCOCC4)nc3nc2cc1OC
inactive: dose: 15.0 mg/kg/injection, schedule: Q01DX005 (ip), vehicle: saline with Tween-80 92 % of control | dose: 30.0 mg/kg/injection, schedule: Q01DX005 (ip), vehicle: saline with Tween-80 93 % of control | [4] 91 % of control | [5] 93 % of control

COC1=C/C(=C\C=C\c2ccccc2)C(OC)=CC1=O
inactive: dose: 2.5 mg/kg/injection, schedule: Q01DX009 (ip), vehicle: saline with Tween-80 102 % of control | dose: 5.0 mg/kg/injection, schedule: Q01DX009 (ip), vehicle: saline with Tween-80 104 % of control | dose: 10.0 mg/kg/injection, schedule: Q01DX009 (ip), vehicle: saline with Tween-80 108 % of control

COc1cc(C2Oc3c(OC)cc(/C=C/C(=O)NCCc4ccc(O)cc4)cc3C2C(=O)NCCc2ccc(O)cc2)ccc1O (stereo unspecified)
inactive: dose: 1.88 mg/kg/injection, schedule: Q01DX005 (ip), vehicle: Klucel (hydroxypropylcellulose) (HPC) 96 % of control | dose: 3.75 mg/kg/injection, schedule: Q01DX005 (ip), vehicle: Klucel (hydroxypropylcellulose) (HPC) 94 % of control | dose: 7.5 mg/kg/injection, schedule: Q01DX005 (ip), vehicle: Klucel (hydroxypropylcellulose) (HPC) 99 % of control | dose: 15.0 mg/kg/injection, schedule: Q01DX005 (ip), vehicle: Klucel (hydroxypropylcellulose) (HPC) 101 % of control

C=CC1CN2CCC1CC2C(O)c1ccnc2ccccc12 (stereo unspecified)
inactive: dose: 60.0 mg/kg/injection, schedule: Q01DX005 (ip), vehicle: saline 98 % of control | dose: 120.0 mg/kg/injection, schedule: Q01DX005 (ip), vehicle: saline 98 % of control

Cc1c(CCNC=O)cc(C)c2c3c(oc12)CCCC3
inactive: [9] 91 % of control | [10] 91 % of control | [11] 94 % of control | [12] 91 % of control

Cc1cc[n+](C2=C(Nc3ccccc3)C(=O)c3ccccc3C2=O)cc1
inactive: dose: 12.5 mg/kg/injection, schedule: Q01DX005 (ip), vehicle: saline with Tween-80 106 % of control | [6] 114 % of control | [7] 116 % of control and 122 % of control | [8] 118 % of control

COc1cccc(/C=N/NC(=O)C2CCN(C(=S)NC3CC4C=CC3C4)CC2)c1O (stereo unspecified)
inactive: dose: 12.5 mg/kg/injection, schedule: Q01DX009 (ip), vehicle: saline with Tween-80 101 % of control | [9] 99 % of control and 97 % of control | [10] 103 % of control | [11] 103 % of control

OCCN(CCO)N(CCO)CCO
inactive: dose: 50.0 mg/kg/injection, schedule: Q01DX005 (ip), vehicle: saline 96 % of control | dose: 100.0 mg/kg/injection, schedule: Q01DX005 (ip), vehicle: saline 97 % of control | dose: 200.0 mg/kg/injection, schedule: Q01DX005 (ip), vehicle: saline 97 % of control

S=C(Nc1ccc(Cl)cc1)Nc1ncccn1
inactive: dose: 12.5 mg/kg/injection, schedule: Q01DX009 (ip), vehicle: Klucel (hydroxypropylcellulose) (HPC) 98 % of control | dose: 25.0 mg/kg/injection, schedule: Q01DX009 (ip), vehicle: Klucel (hydroxypropylcellulose) (HPC) 103 % of control | [13] 100 % of control and 97 % of control

Cc1ccc(S(=O)(=O)NC(C)(COS(=O)(=O)c2ccc(C)cc2)COS(=O)(=O)c2ccc(C)cc2)cc1
inactive: [13] 95 % of control | dose: 100.0 mg/kg/injection, schedule: Q01DX009 (ip), vehicle: Klucel (hydroxypropylcellulose) (HPC) 96 % of control | dose: 200.0 mg/kg/injection, schedule: Q01DX009 (ip), vehicle: Klucel (hydroxypropylcellulose) (HPC) 96 % of control

CCOC(=O)NC(c1ccc(C(NC(=O)OCC)P(=O)(O)NC23CC4CC(CC(C4)C2)C3)cc1)P(=O)(O)NC12CC3CC(CC(C3)C1)C2 (stereo unspecified)
inactive: [3] 105 % of control | [4] 105 % of control | [5] 98 % of control

COc1cc(OC)c2c3c1CCC(O)=C3C(=O)OC2
inactive: dose: 4.38 mg/kg/injection, schedule: Q01DX005 (ip), vehicle: Klucel (hydroxypropylcellulose) (HPC) 94 % of control | dose: 8.75 mg/kg/injection, schedule: Q01DX005 (ip), vehicle: Klucel (hydroxypropylcellulose) (HPC) 94 % of control | dose: 17.5 mg/kg/injection, schedule: Q01DX005 (ip), vehicle: Klucel (hydroxypropylcellulose) (HPC) 94 % of control

COC(=O)Nc1c2c(nc3ccccc13)-c1ccccc1C(C)(C)C2OC (stereo unspecified)
inactive: [14] 99 % of control | [15] 108 % of control | dose: 200.0 mg/kg/injection, schedule: Q01DX005 (ip), vehicle: Klucel (hydroxypropylcellulose) (HPC) 104 % of control

CCOC(=O)c1c(C)c(C(C)=O)c2ccccn12
inactive: [3] 104 % of control | [4] 119 % of control | [5] 105 % of control

O=C1C=CC(=O)C=C1
inactive: dose: 3.12 mg/kg/injection, schedule: Q04DX003 (ip), vehicle: saline with Tween-80 101 % of control | dose: 6.25 mg/kg/injection, schedule: Q04DX003 (ip), vehicle: saline with Tween-80 99 % of control

N#CC1CCCC(C#N)N1CN1C(C#N)CCCC1C#N (stereo unspecified)
inactive: [14] 97 % of control | [15] 88 % of control

Cc1ccc(-n2nc(C)cc2C)nn1
inactive: [1] 99 % of control | [2] 101 % of control

S=c1nc[nH]c2c1ncn2C1C=CC=CC=C1
inactive: [7] 110 % of control | [8] 106 % of control

CSc1nc(N)nc2c1ncn2C1OC(CO)C(O)C1O (stereo unspecified)
inactive: [10] 90 % of control | dose: 100.0 mg/kg/injection, schedule: Q04DX003 (ip), vehicle: saline sonified 100 % of control | [11] 86 % of control | dose: 200.0 mg/kg/injection, schedule: Q04DX003 (ip), vehicle: saline sonified 100 % of control | [12] 100 % of control | dose: 400.0 mg/kg/injection, schedule: Q04DX003 (ip), vehicle: saline sonified 95 % of control
